Results from patent US10758534B2 (Vertex Pharmaceuticals Incorporated, priority 2014, dated 2020).

molecular target: T1, F508del (Homo sapiens, UniProt P13569, DEL508-508); test: Protocol 2: FRET membrane potential optical assay (VIPR), identification of correction compounds; type: cell-based; settings: F508del CFTR modulator activity; compounds of Table 1
T1 construct: expressed in transfected cells
Excerpt: Membrane potential optical methods for assaying F508del modulation properties of compounds.
These voltage sensitive assays are based on the change in fluorescence resonant energy transfer (FRET) between the membrane-soluble, voltage-sensitive dye, DiSBAC2(3), and a fluorescent phospholipid, CC2-DMPE, which is attached to the outer leaflet of the plasma membrane and acts as a FRET donor. Changes in membrane potential (Vm) cause the negatively charged DiSBAC2(3) to redistribute across the plasma membrane and the amount of energy transfer from CC2-DMPE changes accordingly. The changes in fluorescence emission were monitored using VIPR™ II, which is an integrated liquid handler and fluorescent detector designed to conduct cell-based screens in 96- or 384-well microtiter plates.
To identify small molecules that correct the trafficking defect associated with F508del; a single-addition HTS assay format was developed. The cells were incubated in serum-free medium for 16 hrs at 37° C. in the presence or absence (negative control) of test compound. As a positive control, cells plated in 384-well plates were incubated for 16 hrs at 27° C. to “temperature-correct” F508del. The cells were subsequently rinsed 3× with Krebs Ringers solution and loaded with the voltage-sensitive dyes. To activate F508del, 10 μM forskolin and the CFTR potentiator, genistein (20 μM), were added along with Cl^−-free medium to each well. The addition of Cl^−-free medium promoted Cl^− efflux in response to F508del activation and the resulting membrane depolarization was optically monitored using the FRET-based voltage-sensor dyes.
• Bath Solution #1: (in mM) NaCl 160, KCl 4.5, CaCl2 2, MgCl2 1, HEPES 10, pH 7.4 with NaOH. • Chloride-free bath solution: Chloride salts in Bath Solution #1 (above) are substituted with gluconate salts. • CC2-DMPE: Prepared as a 10 mM stock solution in DMSO and stored at −20° C. • DiSBAC2(3): Prepared as a 10 mM stock in DMSO and stored at −20° C. Cell Culture
NIH3T3 mouse fibroblasts stably expressing F508del are used for optical measurements of membrane potential. The cells are maintained at 37° C. in 5% CO2 and 90% humidity in Dulbecco's modified Eagle's medium supplemented with 2 mM glutamine, 10% fetal bovine serum, 1×NEAA, β-ME, 1× pen/strep, and 25 mM HEPES in 175 cm^2 culture flasks. For all optical assays, the cells were seeded at 30,000/well in 384-well matrigel-coated plates and cultured for 2 hrs at 37° C. before culturing at 27° C. for 24 hrs for the potentiator assay. For the correction assays, the cells are cultured at 27° C. or 37° C. with and without compounds for 16-24 hours.

T1 sequence (P13569 with tags, fused parts or gaps DEL508-508): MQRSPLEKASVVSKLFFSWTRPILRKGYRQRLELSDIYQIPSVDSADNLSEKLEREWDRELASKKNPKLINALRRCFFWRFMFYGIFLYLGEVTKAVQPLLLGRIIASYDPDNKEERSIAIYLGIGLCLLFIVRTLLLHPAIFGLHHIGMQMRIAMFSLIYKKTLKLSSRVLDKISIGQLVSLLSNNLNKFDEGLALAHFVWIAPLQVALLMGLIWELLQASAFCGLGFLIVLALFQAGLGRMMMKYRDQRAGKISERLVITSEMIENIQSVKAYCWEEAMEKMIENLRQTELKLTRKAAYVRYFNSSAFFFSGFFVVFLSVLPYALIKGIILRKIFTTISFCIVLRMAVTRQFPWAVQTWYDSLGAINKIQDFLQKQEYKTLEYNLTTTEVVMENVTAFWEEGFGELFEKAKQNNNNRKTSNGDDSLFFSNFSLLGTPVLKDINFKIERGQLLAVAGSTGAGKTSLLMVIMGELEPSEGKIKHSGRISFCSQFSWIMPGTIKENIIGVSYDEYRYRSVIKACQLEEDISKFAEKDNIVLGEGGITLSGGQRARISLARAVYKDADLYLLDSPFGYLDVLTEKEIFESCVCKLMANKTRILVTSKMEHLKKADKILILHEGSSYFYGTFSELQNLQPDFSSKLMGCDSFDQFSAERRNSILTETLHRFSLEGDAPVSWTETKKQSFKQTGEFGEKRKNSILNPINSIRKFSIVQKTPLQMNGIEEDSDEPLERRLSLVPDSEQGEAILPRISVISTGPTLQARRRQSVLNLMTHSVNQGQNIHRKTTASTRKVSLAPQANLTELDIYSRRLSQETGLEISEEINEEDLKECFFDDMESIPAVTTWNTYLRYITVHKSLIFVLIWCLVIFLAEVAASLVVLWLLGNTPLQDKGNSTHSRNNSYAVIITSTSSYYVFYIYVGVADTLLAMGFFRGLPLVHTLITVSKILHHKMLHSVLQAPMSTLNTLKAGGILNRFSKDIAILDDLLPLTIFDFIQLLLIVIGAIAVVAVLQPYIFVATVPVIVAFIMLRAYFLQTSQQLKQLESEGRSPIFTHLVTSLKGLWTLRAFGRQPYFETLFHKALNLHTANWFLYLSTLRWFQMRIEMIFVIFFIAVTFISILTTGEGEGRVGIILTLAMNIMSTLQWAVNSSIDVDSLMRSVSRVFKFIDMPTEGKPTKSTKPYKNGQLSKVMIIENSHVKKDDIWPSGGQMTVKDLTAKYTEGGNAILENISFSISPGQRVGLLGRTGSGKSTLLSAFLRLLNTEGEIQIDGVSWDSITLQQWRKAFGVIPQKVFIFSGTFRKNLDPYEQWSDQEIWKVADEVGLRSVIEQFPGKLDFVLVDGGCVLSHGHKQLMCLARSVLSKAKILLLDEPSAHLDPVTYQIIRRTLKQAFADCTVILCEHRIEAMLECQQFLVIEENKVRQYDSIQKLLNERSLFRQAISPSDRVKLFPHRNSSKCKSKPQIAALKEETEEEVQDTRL

Row | Compound | EC30
1 | CC(C)COc1cc(F)cc(-c2ccc(C(=O)NS(=O)(=O)c3cccc(N)n3)c(N3CC(C)CC34CCC4)n2)c1 (single isomer, unassigned) [Compound 2552, N-[(6-amino-2-pyridyl)sulfonyl]-6-(3-fluoro-5-isobutoxy-phenyl)-2-(6-methyl-8-azaspiro[3.4]octa N-8-yl)pyridine-3-carboxamide] | +++ (“+++” means <3 uM)
2 | CC(C)(C)c1ccc(C(=O)NS(=O)(=O)c2cccc(N)n2)c(N2CCC(C3CC3)C2(C)C)n1 (single isomer, unassigned) [Compound 2577, N-[(6-amino-2-pyridyl)sulfonyl]-6-tert-butyl-2-(3-cyclopropyl-2,2-dimethyl-pyrrolidin-1-yl)pyridine-3-carboxamide] | +++ (“+++” means <3 uM)

same assay, conditions: F508del CFTR modulator activity; compounds of Table 1; read-out: EC30

Row | EC30 | Compound
3 | 3000 to 10000 nM | Nc1cccc(S(=O)(=O)NC(=O)c2cccnc2N2CCCC(c3ccccc3)C2)n1 (single isomer, unassigned) [Compound 2615]
4 | < 3000 nM | C[C@@H]1CN(c2nc(C(C)(C)C)c(C(O)C(O)C3CCCC3)cc2C(=O)NS(=O)(=O)c2cccc(N)n2)C(C)(C)C1 (single isomer, unassigned) [Compound 2661]
5 | < 3000 nM | C[C@@H]1CN(c2nc(C3CCCCO3)ccc2C(=O)NS(=O)(=O)c2cccnc2N)C(C)(C)C1 (single isomer, unassigned) [Compound 2672]
6 | < 3000 nM | CC1CN(c2ncccc2C(=O)NS(=O)(=O)c2cccc(N(C)C(C)C)n2)C(C)(C)C1 (single isomer, unassigned) [Compound 2724]

Row | Compound | EC30
7 | CC1CN(c2ncccc2C(=O)NS(=O)(=O)c2cccc(OC3CCC[C@@H]3C)n2)C(C)(C)C1 (stereo in doubt) [Compound 2109, N—[[6-[(1S,2S)-2-methylcyclopentoxy]-2-pyridyl]sulfonyl]-2-(2,2,4-trimethylpyrrolidin-1-yl)pyridine-3-carboxamide] | < 3000 nM

same assay, conditions: Table 3; compounds of Table 1 as modulators of CFTR activity; protocol not stated

Row | Compound | EC30
8 | CC(C)(C)c1cc(C(=O)NS(=O)(=O)c2ccccc2)n(Cc2cc(F)ccc2C(F)(F)F)n1 [Compound 3, 3-(tert-butyl)-1-(5-fluoro-2-(trifluoromethyl)benzyl)-N-(phenylsulfonyl)-1H-pyrazole-5-carboxamide] | +++ (“+++” means <3 uM)
9 | COC(=O)C(C(=O)c1cc(C(C)(C)C)nn1Cc1c(C)cccc1C)S(=O)(=O)c1ccccc1 (stereo not shown) [Compound 4, Methyl 2-(benzenesulfonyl)-3-[5-tert-butyl-2-[(2,6-dimethylphenyl)methyl]pyrazol-3-yl]-3-oxo-propanoate] | + (“+” means greater than 10 uM)
10 | Cc1ccc(-c2nc(C(C)(C)C)ccc2C(=O)NS(=O)(=O)c2cccc(N)c2)c(C)c1 [Compound 5, N-(3-aminophenyl)sulfonyl-6-tert-butyl-2-(2,4-dimethylphenyl)pyridine-3-carboxamide] | ++ (“++” means between 3 uM and 10 uM)
11 | Cc1cc(C)c(Oc2nc(-c3cccc(OCC(C)C)c3)ccc2C(=O)NS(=O)(=O)c2cccc(N)n2)c(C)c1 [Compound 8, N-[(6-amino-2-pyridyl)sulfonyl]-6-(3-isobutoxyphenyl)-2-(2,4,6-trimethylphenoxy)pyridine-3-carboxamide] | +++ (“+++” means <3 uM)
12 | Cc1cc(C)c(Oc2nc(-c3ccc4c(c3)OCCCO4)ccc2C(=O)NS(=O)(=O)c2cccc(N)n2)c(C)c1 [Compound 14, N-[(6-amino-2-pyridyl)sulfonyl]-6-(3,4-dihydro-2H-1,5-benzodioxepin-7-yl)-2-(2,4,6-trimethylphenoxy)pyridine-3-carboxamide] | +++ (“+++” means <3 uM)
13 | Cc1ccc(Oc2nc3c(cc2C(=O)NS(=O)(=O)c2cccc(N)n2)CCCC3(C)C)c(C)c1 [Compound 15, N-[(6-amino-2-pyridyl)sulfonyl]-2-(2,4-dimethylphenoxy)-8,8-dimethyl-6,7-dihydro-5H-quinoline-3-carboxamide] | +++ (“+++” means <3 uM)

Second part, the molecule after the results:

Row | EC30 | Compound
14 | +++ (“+++” means <3 uM) | Cc1cc(C)c(Oc2nc(Cc3ccccc3)ccc2C(=O)NS(=O)(=O)c2cccc(N)n2)c(C)c1 [Compound 1, N-[(6-amino-2-pyridyl)sulfonyl]-6-benzyl-2-(2,4,6-trimethylphenoxy)pyridine-3-carboxamide]
15 | +++ (“+++” means <3 uM) | Cc1cccc(C)c1Cn1c(C(=O)NS(=O)(=O)c2ccccc2)cc2ccccc21 [Compound 2, N-(benzenesulfonyl)-1-[(2,6-dimethylphenyl)methyl]indole-2-carboxamide]
16 | +++ (“+++” means <3 uM) | Cc1cc(C)c(CN2Cc3ccccc3C2C(=O)NS(=O)(=O)c2ccccc2)c(C)c1 (stereo not shown) [Compound 6, N-(benzenesulfonyl)-2-[(2,4,6-trimethylphenyl)methyl]isoindoline-1-carboxamide]
17 | +++ (“+++” means <3 uM) | Cc1cc(C)c(CCn2nc(C(C)(C)C)cc2C(=O)NS(=O)(=O)c2cccc(N)c2)c(C)c1 [Compound 7, N-(3-aminophenyl)sulfonyl-5-tert-butyl-2-[2-(2,4,6-trimethylphenyl)ethyl]pyrazole-3-carboxamide]
18 | +++ (“+++” means <3 uM) | Cc1cc(C)c(Cn2c(C(=O)NS(=O)(=O)c3cccc(N)c3)cc3ccc(Cl)cc32)c(C)c1 [Compound 9, N-(3-aminophenyl)sulfonyl-6-chloro-1-[(2,4,6-trimethylphenyl)methyl]indole-2-carboxamide]
19 | +++ (“+++” means <3 uM) | Cc1cc(C)c(Cn2c(C(=O)NS(=O)(=O)c3ccccc3)cc3ccc(Cl)cc32)c(C)c1 [Compound 10, N-(benzenesulfonyl)-6-chloro-1-[(2,4,6-trimethylphenyl)methyl]indole-2-carboxamide]
20 | +++ (“+++” means <3 uM) | Cc1cc(C)c(Oc2nc(C(C)(C)C)ccc2C(=O)NS(=O)(=O)c2ccc(N)cc2)c(C)c1 [Compound 11, N-(4-aminophenyl)sulfonyl-6-tert-butyl-2-(2,4,6-trimethylphenoxy)pyridine-3-carboxamide]
21 | +++ (“+++” means <3 uM) | Cc1cc(C)c(Cn2c(C(=O)NS(=O)(=O)c3ccccc3)cc3ccc(C)cc32)c(C)c1 [Compound 12, N-(benzenesulfonyl)-6-methyl-1-[(2,4,6-trimethylphenyl)methyl]indole-2-carboxamide]
22 | ++ (“++” means between 3 uM and 10 uM) | Cc1cc(C)c(Oc2nc(C)ccc2C(=O)NS(=O)(=O)c2cccc(N)c2)c(C)c1 [Compound 13, N-(3-aminophenyl)sulfonyl-6-methyl-2-(2,4,6-trimethylphenoxy)pyridine-3-carboxamide]
23 | +++ (“+++” means <3 uM) | COc1cccc(S(=O)(=O)NC(=O)C2c3ccccc3CN2Cc2c(C)cc(C)cc2C)c1 (stereo not shown) [Compound 16, N-(3-methoxyphenyl)sulfonyl-2-[(2,4,6-trimethylphenyl)methyl]isoindoline-1-carboxamide]
24 | +++ (“+++” means <3 uM) | COc1ccc(-c2ccc(C(=O)NS(=O)(=O)c3cccc(N)n3)c(Oc3c(C)cc(C)cc3C)n2)cc1 [Compound 17, N-[(6-amino-2-pyridyl)sulfonyl]-6-(4-methoxyphenyl)-2-(2,4,6-trimethylphenoxy)pyridine-3-carboxamide]
25 | +++ (“+++” means <3 uM) | COc1ncccc1S(=O)(=O)NC(=O)c1cc2ccccc2n1Cc1c(C)cc(C)cc1C [Compound 18, N-[(2-methoxy-3-pyridyl)sulfonyl]-1-[(2,4,6-trimethylphenyl)methyl]indole-2-carboxamide]
26 | +++ (“+++” means <3 uM) | Cc1cc(C)c(Cn2nc(C(C)(C)C)c(C)c2C(=O)NS(=O)(=O)c2cccc(N)c2)c(C)c1 [Compound 20, N-(3-aminophenyl)sulfonyl-5-tert-butyl-4-methyl-2-[(2,4,6-trimethylphenyl)methyl]pyrazole-3-carboxamide]
27 | +++ (“+++” means <3 uM) | CCOC(=O)Cc1ccc(-c2cc(C(=O)NS(=O)(=O)c3ccccc3)n(Cc3c(C)cccc3C)n2)cc1 [Compound 21, ethyl 2-[4-[5-(benzenesulfonylcarbamoyl)-1-[(2,6-dimethylphenyl)methyl]pyrazol-3-yl]phenyl]acetate]
28 | +++ (“+++” means <3 uM) | Cc1cc(C)c(Cc2ccc(C(C)(C)C)nc2C(=O)NS(=O)(=O)c2ccccc2)c(C)c1 [Compound 22, N-(benzenesulfonyl)-6-tert-butyl-3-[(2,4,6-trimethylphenyl)methyl]pyridine-2-carboxamide]
